Patent publication US20230348416A1, “GPR52 MODULATOR COMPOUNDS” (Heptares Therapeutics Limited, priority 2020, published 2023)

Legend:
human GPR52 = biological target: T1, human GPR52 (Homo sapiens, UniProt Q9Y2T5); experiment: GPR52 Agonist Functional cAMP Assay; format: cell-based; settings: for EC50: HEKf cells infected with human GPR52 BacMam virus, HTRF cAMP, 30 min at 37° C., read-out: PEC50 average (converted)
T1 construct: expressed in transfected cells; host or cells: HEKf suspension cells infected with BacMam virus
T1 sequence (Q9Y2T5 whole entry): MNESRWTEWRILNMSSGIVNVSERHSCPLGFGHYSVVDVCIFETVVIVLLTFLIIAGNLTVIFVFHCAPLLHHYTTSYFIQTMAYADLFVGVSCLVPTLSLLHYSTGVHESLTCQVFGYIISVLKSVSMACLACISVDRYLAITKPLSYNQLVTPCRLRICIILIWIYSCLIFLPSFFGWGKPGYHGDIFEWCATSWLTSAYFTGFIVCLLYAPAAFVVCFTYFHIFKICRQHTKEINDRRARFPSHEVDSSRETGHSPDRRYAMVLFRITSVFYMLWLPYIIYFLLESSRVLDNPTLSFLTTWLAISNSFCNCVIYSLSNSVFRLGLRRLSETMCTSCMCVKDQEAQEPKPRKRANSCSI
Description: GPR52 Agonist Functional cAMP Assay
HEKf suspension cells were infected for 24 h with 0.1% v/v human GPR52 expressing BacMam virus, a modified baculovirus designed for mammalian gene expression. Following BacMam infection, cells were pelleted by centrifugation (335 g, 5 min), resuspended in cell freezing medium (Sigma) and frozen at −150° C. until required. On experiment day, 25 nL GPR52 compound dilutions, prepared in DMSO, were stamped onto proxiplates (PerkinElmer) by a LabCyte ECHO acoustic dispenser. Frozen cells were thawed and resuspended in assay stimulation buffer (Cisbio) containing 0.5 mM 3-iso-butyl-1-methylxanthine (IBMX, Sigma) to achieve a density of 2000 cells per well. 10 μl cells were added to assay plates using a Multidrop Combi Reagent Dispenser (ThermoFisher) before centrifugation (335 g, 1 min). Cells were incubated with compounds at 37° C. for 30 min prior to addition of cAMP detection reagents (HiRange cAMP kit, Cisbio) which were prepared according to the manufacturer's instructions. Plates were shaken for 1 h at room temperature before reading on a PHERAstar FS plate reader (BMG Labtech) using standard HTRF settings. HTRF ratios were obtained by dividing the acceptor emissions (665 nm) by the donor emissions (620 nm) and multiplying by 10,000.

[1] = system: caffeine-induced hyperlocomotor activity; experiment: Attenuation of caffeine-induced locomotor activity in rat; format: in vivo, male Sprague-Dawley rats; settings: PO 60 min before caffeine 15 mg/kg SC, locomotor activity over 2 h, FIG. 1
Description: Caffeine, a non-selective adenosine receptor antagonist, is a psychostimulant which increases rodent locomotor activity principally via blockade of A2A receptors (Br. J. Pharmacol., 2000, 129, 1465). These receptors are densely expressed on the terminals of GABAergic striatopallidal neurons in the indirect pathway of the basal ganglia, in which dopamine D2 receptors are co-expressed (J. Comp. Neurol., 1998, 401, 163; J. Comp. Neurol., 2001, 431, 331). Tonic activation of A2A receptors decreases the affinity of D2 receptors to dopamine and antagonism of A2A receptors facilitates dopaminergic signalling (Curr. Pharm. Des., 2008, 14, 1468). […] Male Sprague-Dawley rats (200-250 g) were housed in groups with a 12 h light/dark cycle (lights on at 07.00), at an ambient temperature of 21±2° C. and with standard pelleted diet and water adlibitum. Testing was carried out in the light phase. On the day of the experiment, animals were habituated to the locomotor cages for a 60-minute period. Subsequently, they were dosed with vehicle or Example 2 Isomer 1 (0.1, 0.3, 1 and 3 mg/kg) by the oral route and returned to the appropriate locomotor cage. Example 2 Isomer 1 was formulated in a vehicle of 10% DMAC, 10% solutol (Kolliphor HS15) and 80% water (v/v/v). […] Locomotor activity was assessed for a 2 h period after caffeine treatment. […] SEMs were calculated from the residuals of the statistical model. […]

[2] = Rat IV and PO pharmacokinetic profiling; format: in vivo, male Sprague-Dawley rats; settings: male, Sprague-Dawley, plasma, n = 3, mean ± standard deviation
Description: The pharmacokinetic profiles of Example 2 were assessed in male Sprague-Dawley rats via intravenous (IV) and oral (per os, PO) routes of delivery. Pharmacokinetic data (mean values±standard deviation) for Example 2 of the invention are detailed in Table 5.
Methods: For pharmacokinetic analysis, groups of three male Sprague-Dawley rats, ranging in weight between 200 and 230 g, were administered a single dose of Example 2 via IV or PO route, using the doses, dose volumes and vehicles specified in Table 5. Following dosing, blood samples were taken at several time points (pre-dose, 2 min, 5 min, 15 min, 30 min, 1 h, 3 h, 6 h, 12 h and 24 h for IV administration and pre-dose, 5 min, 15 min, 30 min, 1 hr, 2 h, 4 h, 8 h, 12 h and 24 h for PO administration) via serial tail vein bleeds, and centrifuged to separate plasma for analysis by LC-MS/MS. WinNonlin v8.2 statistics software (Pharsight Corporation, California, USA) was used to generate pharmacokinetic parameters using non-compartmental analysis.

[3] = Rat IV brain penetration (unbound brain-to-plasma ratio); format: in vivo, male Sprague-Dawley rats; settings: male, Sprague-Dawley, brain and plasma, 1 mg/kg, 10 min post-dose, n = 3
Description: Plasma and brain exposure were evaluated to assess the brain penetration of Example 2, following IV administration. Unbound brain-to-plasma ratio (Kp,uu) was calculated, as detailed in Table 5, following experimental determination of binding in rat plasma and brain homogenate.
Methods: For brain penetration assessment, male Sprague-Dawley rats (n=3) were administered a single 1 mg/kg dose (formulated in 10% DMAC+10% Solutol HS15+80% saline) via the IV route. After 10 min post-dose, animals were sacrificed and brains extracted, homogenised with 2 volumes (w/v) of 50 mM sodium phosphate buffer (pH 7.4), and analysed by LC-MS/MS. Blood samples were removed at the same time point via tail vein bleed, centrifuged and the plasma analysed by LC-MS/MS.
To permit calculation of unbound brain-to-plasma ratio (Kp,uu), test compound binding in rat plasma and brain homogenate was performed, using Rapid Equilibrium Dialysis (RED). Test compound prepared in DMSO (1 μM final, 0.2% DMSO) was added to (i) undiluted male Sprague Dawley rat plasma and (ii) rat brain tissue homogenised with 2 volumes (w/v) of sodium phosphate buffer (pH 7.4), and dialysed against phosphate buffer for 5 h at 37° C. […] Fraction unbound (Fu) in plasma and brain was calculated using the following formula, then used to correct total plasma and brain concentrations to derive the Kp,uu: […]

[4] = maximal response normalised to DMSO (0%) and compound 7m of J. Med. Chem., 2014, 57, 5226 (100%)

Question: What does the source list for `CC(=O)NC1CCCc2c1nnn2-c1cc(Cc2cc(F)cc(C(F)(F)F)c2)ccn1` (single isomer, unassigned) [Example 2 Isomer 1, N-(1-(4-(3-fluoro-5-(trifluoromethyl)benzyl)pyridin-2-yl)-4,5,6,7-tetrahydro-1H-benzo[d][1,2,3]triazol-4-yl)acetamide]?
Answer: EC50 (human GPR52): 0.0158 µM; Emax (%) (human GPR52; [4]): 91%; effect on caffeine-induced hyperlocomotor response [1]: dose-dependent reduction of the caffeine-induced hyperlocomotor response, reaching statistical significance across all time points at 3 and 10 mg/kg

Question: With `CC(=O)NC1CCCc2c1nnn2-c1cc(Cc2cc(F)cc(C(F)(F)F)c2)ccn1` (centres unmarked) [Example 2, N-(1-(4-(3-fluoro-5-(trifluoromethyl)benzyl)pyridin-2-yl)-4,5,6,7-tetrahydro-1H-benzo[d][1,2,3]triazol-4-yl)acetamide] as the molecule, how does the EC50 (human GPR52) read?
Answer: 0.0501 µM

Question: And the Emax (human GPR52; [4])?
Answer: 86%

Question: What about the clearance ([2]; rat IV, 1 mg/kg) of the same molecule?
Answer: 0.33 ± 0.06 L/h/kg

Question: What about the bioavailability ([2]; rat PO, 3 mg/kg) of the same molecule?
Answer: 88.2 ± 11.4%

Question: What about the Kp uu at 10 min [3] of the same molecule?
Answer: 0.35 ± 0.02
